Experimental data reported in patent publication US6603023B2 (priority 1996, dated 2003).
pIC50: −log10 of the molar value. Several values for one entry are separate records, joined by “and”; a condition that tells them apart may be missing. Equal entries are not always repeated. Structures can show the parent of a compound that is named as a salt. Where two headings read alike, the source gives them in different places. Marks after values point to notes of the source that are not given here.

What was measured:
[1] = tested on: human mammary carcinoma MX-1 xenograft; settings: for Average Body Weight, Day 7: initial weight, first treatment day
Protocol: DMSO was used as a vehicle for epothilones. Each mouse received ≦40 μL DMSO in all experiments.
Athymic nude mice (nu/nu) were used for MX-1 and MCF-7/Adr human mammary carcinoma xenografts. Mice were obtained from Taconic Laboratory Animals and Service (Germantown, N.Y.: outbred, Swiss background).

[2] = tested on: DC-3F/ADX; experiment: cells; format: cell-based, hamster
Procedure, shortened: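 Hamster lung fibroblast DC-3F sublines selected with actinomycin D (ADII moderate, ADX very strong MDR), maintained under selecting agent in RPMI 1640-10% FBS at 37° C. Monolayers exposed to six to seven drug concentrations in duplicate, TCA-fixed, stained with 0.4% SRB; absorbance 570 nm, analyzed by median-effect plot.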

[3] = tested on: MCF-7; experiment: SRB cytotoxicity, MCF-7; format: cell-based, human; settings: Table 1C; SRB, 72 h; read-out: IC50
Procedure, shortened: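 Monolayer MCF-7 cultures exposed to six to seven drug concentrations in duplicate, then fixed with trichloroacetic acid and stained 30 min with 0.4% sulforhodamine B. Bound dye extracted with unbuffered Tris base, absorbance read at 570 nm; values derived by median-effect plot analysis.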

[4] = tested on: B16 Melanoma; format: in vivo, B6D2F1 mice
Protocol: Body weight was determined at 0, 2, 4, 6, 8, 10 and 12 days. […] Injections were started on day 1. […] Body weight was determined at 0, 2, 4, 6, 8, 10 and 12 days. […] Injections were started on day 1.

[5] = tested on: A549 Human Lung Carcinoma; experiment: A549 xenograft; format: in vivo, nude mice; settings: Q2D x 3: dEpoB 30 mg/kg 18 hr i.v. infusion, Taxol 15 mg/kg 6 hr infusion, VBL 2 and VP-16 25 mg/kg i.v. inj
[6] = 0.3 mg/kg i.p. Q2Dx5 from day 7, day 11
[7] = 0.3 mg/kg i.p. Q2Dx5 from day 7, day 13
[8] = 0.3 mg/kg i.p. Q2Dx5 from day 7, day 15
[9] = 0.3 mg/kg i.p. Q2Dx5 from day 7, day 17
[10] = 0.6 mg/kg i.p. Q2Dx5 from day 7, day 11
[11] = 0.6 mg/kg i.p. Q2Dx5 from day 7, day 13
[12] = 0.6 mg/kg i.p. Q2Dx5 from day 7, day 15
[13] = 0.6 mg/kg i.p. Q2Dx5 from day 7, day 17
[14] = 0.6 mg/kg i.p. Q2Dx5 from day 9
[15] = 0.6 mg/kg i.p. Q2Dx5 from day 9, day 13
[16] = 0.6 mg/kg i.p. Q2Dx5 from day 9, day 15
[17] = 0.6 mg/kg i.p. Q2Dx5 from day 9, day 17
[18] = 0.6 mg/kg i.p. Q2Dx5 from day 9, day 19
[19] = high doses: dEpoB 25, EpoB 0.6, Taxol 10, Vinblastine 0.4 mg/kg i.p. Q2D from day 7
[20] = low doses: dEpoB 15, EpoB 0.3, Taxol 5, Vinblastine 0.2 mg/kg i.p. Q2D day 7-15

## C/C(=C\c1csc(C)n1)[C@@H]1C[C@@H]2O[C@]2(C)CCC[C@H](C)[C@H](O)[C@@H](C)C(=O)C(C)(C)[C@@H](O)CC(=O)O1 [Epothilone B, epothilone B]
[1]; 0.3 mg/kg i.p. Q2Dx5 from day 7
  Toxicity Death: 0/7
[1]; [6]
  Average Body Weight Change: +0.5 g
  Average Tumor Size (T/C): 1.00
[1]; [7]
  Average Body Weight Change: +0.4 g
  Average Tumor Size (T/C): 0.71
[1]; [8]
  Average Body Weight Change: -0.3 g
  Average Tumor Size (T/C): 0.71
[1]; [9]
  Average Body Weight Change: -1.2 g
  Average Tumor Size (T/C): 0.84
[1]; 0.6 mg/kg i.p. Q2Dx5 from day 7
  Toxicity Death: 3/7)##
[1]; [10]
  Average Body Weight Change: -0.3 g
  Average Tumor Size (T/C): 1.08
[1]; [11]
  Average Body Weight Change: -1.3 g
  Average Tumor Size (T/C): 0.73
[1]; [12]
  Average Body Weight Change: -2.1 g
  Average Tumor Size (T/C): 0.81
[1]; [13]
  Average Body Weight Change: -2.1 g
  Average Tumor Size (T/C): 0.74
[1]; [14]
  Toxicity Death: 0/6
  Tumor Disapp.: 0/6
[1]; [15]
  Average Body Weight Change: -0.9 g
  Average Tumor Size (T/C): 0.67
[1]; [16]
  Average Body Weight Change: 0.5 g
  Average Tumor Size (T/C): 0.63
[1]; [17]
  Average Body Weight Change: -3.3 g
  Average Tumor Size (T/C): 0.61
[1]; [18]
  Average Body Weight Change: -3.4 g
  Average Tumor Size (T/C): 0.51
[1]; EpoB 0.3 mg/kg i.p. days 7-15
  average body weight decrease: over 1 g
[1]; EpoB 0.6 mg/kg i.p. days 7-15
  average body weight decrease: > 2 g
  mice died of toxicity: three out of seven
[1]; MX-1, i.p., comparison with Camptothecin, VBL, EpoB (order wraps over rows r7-r8)
  Therapeutic effect Rank Order: Taxol ® > VBL, EpoB
[1]; [19]
  Average Body Weight (change), Day 11: -0.3 g
  Average Body Weight (change), Day 13: -1.3 g
  Average Body Weight (change), Day 15: -2.1 g
  Average Body Weight Change, Day 17: -2.1 g
  Average Tumor Volume (T/C), Day 11: 1.08 T/C
  Average Tumor Volume (T/C), Day 13: 0.73 T/C
  Average Tumor Volume (T/C), Day 15: 0.81 T/C
  Average Tumor Volume (T/C), Day 17: 0.74 T/C
  Note: died (mice died/total): 3/7 died
  Average Body Weight, Day 7: 27.4 g
[1]; [20]
  Average Body Weight, Day 7: 26.9 g
  Average Body Weight (change), Day 11: +0.5 g
  Average Body Weight (change), Day 13: +0.4 g
  Average Body Weight (change), Day 15: -0.3 g
  Average Body Weight Change, Day 17: -1.2 g
  Average Tumor Volume (T/C), Day 11: 1.00 T/C
  Average Tumor Volume (T/C), Day 13: 0.71 T/C
  Average Tumor Volume (T/C), Day 15: 0.71 T/C
  Average Tumor Volume (T/C), Day 17: 0.84 T/C
  Note: died (mice died/total): 0/7 died
[2]; DC-3F/ADX cells, listed as EpoB
  fold resistance vs parent DC-3F: 28 fold
[2]; Table 1C, DC-3F/ADX vs DC-3F
  folds of resistance (IC50 ratio vs parent cell line): (28x)
[2]; Table 1C, SRB, 72 h, read-out: IC50
  pIC50: 7.77
[3]
  pIC50: 9.30
[4]; 0.4 mg/kg QD × 6 from day 1, day 7
  Average Tumor Volume (T/C): 1.07
[4]; 0.8 mg/kg QD × 5 from day 1
  # Mice Died: 5/8
[4]; 0.8 mg/kg QD × 5 from day 1, day 9
  Average Tumor Volume (T/C): 0.46
[4]; B16 Melanoma, i.p.
  Therapeutic effect Rank Order: dEpoB > Taxol ® >> EpoB

## CC[C@]1(O)C[C@@H]2CN(CCc3c([nH]c4ccccc34)[C@@](C(=O)OC)(c3cc4c(cc3OC)N(C)[C@H]3[C@@](O)(C(=O)OC)[C@H](OC(C)=O)[C@]5(CC)C=CCN6CC[C@]43[C@@H]65)C2)C1 [Vinblastine, Vinblastine sulfate]
[1]; 0.2 mg/kg i.p. Q2Dx5 from day 7, day 11
  Average Body Weight Change: +0.6 g
[1]; 0.2 mg/kg i.p. Q2Dx5 from day 7, day 13
  Average Body Weight Change: +1.4 g
[1]; 0.2 mg/kg i.p. Q2Dx5 from day 7, day 15
  Average Body Weight Change: +2.3 g
[1]; 0.2 mg/kg i.p. Q2Dx5 from day 7, day 17
  Average Body Weight Change: +2.9 g
[1]; 0.4 mg/kg i.p. Q2Dx5 from day 7, day 11
  Average Body Weight Change: +0.8 g
[1]; 0.4 mg/kg i.p. Q2Dx5 from day 7, day 13
  Average Body Weight Change: +0.5 g
[1]; 0.4 mg/kg i.p. Q2Dx5 from day 7, day 15
  Average Body Weight Change: +1.9 g
[1]; 0.4 mg/kg i.p. Q2Dx5 from day 7, day 17
  Average Body Weight Change: +2.1 g
[1]; [19]
  Average Tumor Volume (T/C), Day 11: 0.80 T/C
  Average Tumor Volume (T/C), Day 13: 0.56 T/C
  Average Tumor Volume (T/C), Day 15: 0.83 T/C
  Average Tumor Volume (T/C), Day 17: 0.88 T/C
  Average Body Weight, Day 7: 26.4 g
[1]; [20]
  Average Body Weight, Day 7: 25.7 g
  Average Tumor Volume (T/C), Day 11: 0.65 T/C
  Average Tumor Volume (T/C), Day 13: 0.54 T/C
  Average Tumor Volume (T/C), Day 15: 0.56 T/C
  Average Tumor Volume (T/C), Day 17: 0.88 T/C
[1]; male, athymic nude (nu/nu), mouse, in vivo
  Note: died (mice died/total): 0/7 died
[1]; male, athymic nude (nu/nu), outbred, Swiss background, mouse, in vivo
  Note: died (mice died/total): 1/7 died
[1]; mouse, in vivo
  Average Tumor Size (T/C): 0.88 and 0.65 and 0.54 and 0.56 and 0.80 and 0.83
[2]; DC3F/ADX, Table 3
  pIC50: 5.97
[5]
  Average Body Weight (change), Day 13: +2.3 g
  Average Body Weight (change), Day 15: +3.2 g
  Tumor Disappearance: 2/3
[5]; control 96
  Average Tumor Size, Day 11: 11 mm^3
[5]; control 128
  Average Tumor Size, Day 13: 11 mm^3
[5]; control 306
  Average Tumor Size, Day 15: 11 mm^3
[5]; control 553
  Average Tumor Size, Day 17: 7 mm^3
[5]; initial weight
  Average Body Weight, Day 7: 25.5 g
